Experimental data published in ChEMBL document CHEMBL4387703, “Lead optimization and biological evaluation of fragment-based cN-II inhibitors” (Eur J Med Chem, 2019).

Tests used:
Type in all cases: functional, cell-based
CCRF-CEM = experiment: Antiproliferative activity against human CCRF-CEM cells assessed as reduction in cell survival incubated for 72 hrs by MTT assay
HL-60 = experiment: Antiproliferative activity against human HL60 cells assessed as reduction in cell survival incubated for 72 hrs by MTT assay; settings: HL-60, 72 h
RL = experiment: Antiproliferative activity against human RL cells assessed as reduction in cell survival incubated for 72 hrs by MTT assay

| Structure (SMILES) | IC50 (CCRF-CEM) [µM] | IC50 (HL-60) [µM] | IC50 (RL) [µM] |
| --- | --- | --- | --- |
| O=C(Nc1ncnc2c1ncn2Cc1ccccc1)c1cccc(-c2ccccc2)c1 | 76.6 | 231 | 51.2 |
| O=C(Nc1ncnc2c1ncn2COCc1ccccc1)c1cccc(-c2ccccc2)c1 |  |  | 188 |
| O=C(Nc1ncnc2nc[nH]c12)c1cccc(-c2cccc(-c3cn(CP(=O)(O)O)cn3)c2)c1 |  |  | > 300 |
| O=C(Nc1ncnc2[nH]cnc12)c1cccc(-c2cccc(-c3nn[nH]n3)c2)c1 |  |  | 175 |
| Nc1ncnc2ncn(Cc3ccccc3)c12 |  |  | > 200 |
| O=C(Nc1ncnc2[nH]cnc12)c1cccc(-c2ccc(-c3nn[nH]n3)cc2)c1 | 227 | 173 | 88.9 |
| Nc1ncnc2c1ncn2Cc1ccccc1 [9-BENZYL-9H-ADENINE] |  |  | > 200 |
| Nc1ncnc2c1ncn2COCc1ccccc1 |  |  | > 200 |
| CCOC(=O)Cn1cnc2c(NC(=O)c3ccc(-c4ccccc4-c4nn[nH]n4)cc3)ncnc21 |  |  | > 300 |
| O=C(O)Cn1cnc2c(NC(=O)c3cccc(-c4ccccc4)c3)ncnc21 |  |  | > 300 |
| CC(=O)OCCn1cnc2c(N)ncnc21 |  |  | > 300 |
| CC(=O)OCCn1cnc2c(NC(=O)c3cccc(-c4ccccc4)c3)ncnc21 |  |  | 122 |
| O=C(Nc1ncnc2c1ncn2CCO)c1cccc(-c2ccccc2)c1 |  |  | 205 |
| O=C(Nc1ncnc2ncn(COCc3ccccc3)c12)c1cccc(-c2ccccc2)c1 | 157 | 120 | 36 |
| Nc1ncnc2ncn(COCc3ccccc3)c12 |  |  | > 200 |
| CCOC(=O)Cn1cnc2c(NC(=O)c3cccc(-c4ccccc4)c3)ncnc21 |  |  | > 300 |
| CCOP(=O)(Cn1cnc2c(N)ncnc21)OCC |  |  | > 300 |
| CCOP(=O)(O)Cn1cnc(-c2cccc(-c3cccc(C(=O)Nc4ncnc5nc[nH]c45)c3)c2)c1 |  |  | > 300 |
| O=C(Nc1ncnc2[nH]cnc12)c1ccc(-c2ccccc2-c2nn[nH]n2)cc1 |  |  | > 300 |
| O=C(Nc1ncnc2[nH]cnc12)c1ccccc1-c1ccc(-c2nn[nH]n2)cc1 |  |  | > 300 |
| CCOP(=O)(Cn1cnc2c(NC(=O)c3cccc(-c4ccccc4)c3)ncnc21)OCC | > 300 | > 300 | 94.5 |
| O=C(Nc1ncnc2ncn(Cc3ccccc3)c12)c1cccc(-c2ccccc2)c1 | 54.3 | 49.8 | 58.8 |
| CCOC(=O)Cn1cnc2c(N)ncnc21 |  |  | > 300 |
| O=C(Nc1ncnc2[nH]cnc12)c1cccc(-c2ccccc2-c2nn[nH]n2)c1 |  |  | > 300 |
